The results in this text go back to patent US20230365585A1, “BENZODIAZEPINE DERIVATIVES USEFUL IN TREATING A RESPIRATORY SYNCYTIAL VIRUS INFECTION” (priority 2020, published 2023).

Where only a bound is given, the exact number is not on record here.

The subject of data set [1] is RSV A2. The experiment in a line: RSV plaque reduction assay. It counts as cell-based, RSV (RSV A2 ECACC, 0709161v). To be noted: Hep-G2 cells, RSV A2, 2 days, mean of at least two experiments. How it is done: Compounds were subjected to RSV plaque reduction assays according to the following protocol.
Hep-G2 cells (ECACC, 85011430) were passaged in flasks and seeded in 24-well plates in DMEM containing antibiotics and supplemented with 10% FBS. During inoculation and subsequent incubation, cells were cultured in DMEM containing 2% FBS. 100 plaque forming unit/well of RSV (RSV A2 ECACC, 0709161v) was mixed with eight serial dilutions of compound. Subsequently, 100 µL of the virus/compound mixtures was added to confluent Hep-G2 cell monolayers. The cells and virus/compound mixtures were incubated at 37° C. in a humidified 5% CO2 incubator for 2 h prior to removal of the inoculum and addition of 1 mL of overlay (DMEM containing 2% FBS and 0.8% CMC) containing compound dilutions. The cells and were incubated at 37° C. in a humidified 5% CO2 incubator for 2 days.
Cells were washed with PBS before adding 75%/25% v/v EtOH/MeOH, for 3 min. Fix ative was removed and plates were washed with PBS. A pre-titrated amount of the primary antibody was added in 200 µL PBS/2% milk powder, and plates incubated for 90 min at 37° C. The plates were washed 3 times with PBS/0.05% Tween20 before addition of rabbit anti-goat horse radish peroxidase in 200 µL PBS/2% milk powder, and incubated for 1 h at 37° C. Following three wash steps with PBS/0.05% Tween20, 200 µL ready-to-use TrueBlue was added and plates were incubated at rt for 10-15 min before washing with water. After removal of water, plates were air-dried in the dark.
(§1) Plates were scanned and analysed using the Immunospot S6 Macro analyser, which is equipped with BioSpot analysis software for counting immunostained plaques (virospots). Plaque counts were used to calculate % infection relative to the mean of the plaque count in the virus control wells for RSV. […] Plaque EC50 and cell toxicity CC50 values are a mean of at least two experiments and figures are rounded to whole units.
(In general: In a plaque reduction assay, fewer plaques than in the control indicate reduced infectivity or spread.)

Data set [2] relates to Hep-G2 cells. Put plainly: Cell cytotoxicity CC50. Format: cell-based. To be noted: mean of at least two experiments.
From the text: as §1

Data set [3] in a line: Cell cytotoxicity CC50. It counts as cell-based. To be noted: human; mean of at least two experiments.
From the text: as §1

[4] abbreviates: human respiratory syncytial virus, HepG2, 48 h.

Usually EC50 stands for the concentration at which the effect is half-maximal. A higher EC50 goes with weaker potency. By CC50 is commonly meant the concentration giving 50% cytotoxicity. Low values mean harm at low concentration, high ones better tolerance by the cells. “2-(2,4-Difluorophenyl)-5-methyl-N-[(3S)-2-oxo-5-phenyl-1,3-dihydro-1,4-benzodiazepin-3-yl]-5,6,7,8-tetrahydropyrazolo[5,1-b][1,3]oxazepine-3-carboxamide [Example 16]” gave an EC50 in data set [1] of 64 nM. In data set [2], the CC50 was more than 25000 nM.
For `CCNc1ccc(-c2nn3c(c2C(=O)N[C@H]2N=C(c4ccccc4)c4ccccc4NC2=O)OC(C)CCC3)c(F)n1` (single isomer, unassigned) [Example 10-2, (5S*)-2-[6-(ethylamino)-2-fluoropyridin-3-yl]-5-methyl-N-[(3S)-2-oxo-5-phenyl-1,3-dihydro-1,4-benzodiazepin-3-yl]-5,6,7,8-tetrahydropyrazolo[5,1-b][1,3]oxazepine-3-carboxamide], in data set [1], the EC50 worked out at 24 nM. In data set [2], this compound came in with a half-maximal cytotoxic concentration (CC50) of more than 25000 nM.
Taken in the same sequence, the figures for `CC(C)Nc1ccc(-c2nn3c(c2C(=O)N[C@H]2N=C(c4ccccc4)c4ccccc4NC2=O)OC(C)CCC3)c(F)n1` (single isomer, unassigned) [Example 12-2, (5S*)-2-[2-fluoro-6-(propan-2-ylamino)pyridin-3-yl]-5-methyl-N-[(3S)-2-oxo-5-phenyl-1,3-dihydro-1,4-benzodiazepin-3-yl]-5,6,7,8-tetrahydropyrazolo[5,1-b][1,3]oxazepine-3-carboxamide] were 33 nM and more than 25000 nM.
Taken in the same sequence, the figures for `CC(C)Nc1ccc(-c2nn3c(c2C(=O)N[C@H]2N=C(c4ccccc4)c4cccc(F)c4NC2=O)OC(C)CCC3)c(F)n1` (single isomer, unassigned) [Example 13-2, (5S*)-N-[(3S)-9-fluoro-2-oxo-5-phenyl-1,3-dihydro-1,4-benzodiazepin-3-yl]-2-[2-fluoro-6-(propan-2-ylamino)pyridin-3-yl]-5-methyl-5,6,7,8-tetrahydropyrazolo[5,1-b][1,3]oxazepine-3-carboxamide] were 23 nM and more than 25000 nM.
The corresponding values for `CC1CCCOc2c(C(=O)NC3N=C(c4ccccc4)c4ccccc4NC3=O)c(-c3ccccc3F)nn21` (single isomer, unassigned) [Example 14-2, (8S*)-2-(2-Fluorophenyl)-8-methyl-N-(2-oxo-5-phenyl-1,3-dihydro-1,4-benzodiazepin-3-yl)-5,6,7,8-tetrahydropyrazolo[5,1-b][1,3]oxazepine-3-carboxamide] are 60 nM and more than 25000 nM.
For `CC1CCCOc2c(C(=O)NC3N=C(c4ccccc4)c4cccc(F)c4NC3=O)c(-c3ccccc3F)nn21` (single isomer, unassigned) [Example 15-2, (8S*)-N-(9-fluoro-2-oxo-5-phenyl-1,3-dihydro-1,4-benzodiazepin-3-yl)-2-(2-fluorophenyl)-8-methyl-5,6,7,8-tetrahydropyrazolo[5,1-b][1,3]oxazepine-3-carboxamide], the EC50 in data set [1] was 37 nM. In addition, the CC50 in data set [2] was more than 25000 nM.
For the compound `CC1CCCn2nc(-c3ccc(F)cc3F)c(C(=O)N[C@H]3N=C(c4ccccc4)c4ccccc4NC3=O)c2O1` (single isomer, unassigned) [Example 16-2, (5S*)-2-(2,4-difluorophenyl)-5-methyl-N-[(3S)-2-oxo-5-phenyl-1,3-dihydro-1,4-benzodiazepin-3-yl]-5,6,7,8-tetrahydropyrazolo[5,1-b][1,3]oxazepine-3-carboxamide], the EC50 in data set [1] amounted to 39 nM. This compound also gave a CC50 in data set [2] of more than 25000 nM.
As for `CC1CCCn2nc(-c3ccc(F)cc3F)c(C(=O)N[C@H]3N=C(c4ccccc4)c4cccc(F)c4NC3=O)c2O1` (single isomer, unassigned) [Example 17-2, (5S*)-2-(2,4-difluorophenyl)-N-[(3S)-9-fluoro-2-oxo-5-phenyl-1,3-dihydro-1,4-benzodiazepin-3-yl]-5-methyl-5,6,7,8-tetrahydropyrazolo[5,1-b][1,3]oxazepine-3-carboxamide], the response in data set [1] was half-maximal at 20 nM (EC50). In data set [2], this compound displayed a CC50 of more than 25000 nM.
For `CCC1CCCn2nc(-c3ccccc3F)c(C(=O)N[C@H]3N=C(c4ccccc4)c4ccccc4NC3=O)c2O1` (single isomer, unassigned) [Example 24-2, (5S*)-5-ethyl-2-(2-fluorophenyl)-N-[(3S)-2-oxo-5-phenyl-2,3-dihydro-1H-1,4-benzodiazepin-3-yl]-5H,6H,7H,8H-pyrazolo[3,2-b][1,3]oxazepine-3-carboxamide], it took 89 nM to reach a half-maximal effect in data set [1] (EC50). In addition, in data set [2], the CC50 is more than 25000 nM.
In turn, `O=C(N[C@H]1N=C(c2ccccc2)c2cccc(F)c2NC1=O)c1c(-c2ccccc2F)nn2c1SCCCC2` [Example 20, N-[(3S)-9-fluoro-2-oxo-5-phenyl-2,3-dihydro-1H-1,4-benzodiazepin-3-yl]-2-(2-fluorophenyl)-5H,6H,7H,8H-pyrazolo[3,2-b][1,3]thiazepine-3-carboxamide] registered a half-maximal effective concentration (EC50) in data set [1] (setting [4]) of 34 nM. In addition, the 50% cytotoxic concentration (CC50) in data set [3] is more than 25000 nM.
The corresponding values for `O=C(N[C@H]1N=C(c2ccccc2)c2cccc(F)c2NC1=O)c1c(-c2ccccc2F)nn2c1S(=O)(=O)CCCC2` [Example 21, N-[(3S)-9-fluoro-2-oxo-5-phenyl-2,3-dihydro-1H-1,4-benzodiazepin-3-yl]-2-(2-fluorophenyl)-4,4-dioxo-5H,6H,7H,8H-4λ^6-pyrazolo[3,2-b][1,3]thiazepine-3-carboxamide] are 377 nM and more than 25000 nM.
Taken in the same sequence, the figures for `CCc1ccc(-c2nn3c(c2C(=O)N[C@H]2N=C(c4ccccc4)c4cccc(F)c4NC2=O)OCC(F)(F)CC3)cn1` [Example 22, 2-(6-Ethylpyridin-3-yl)-6,6-difluoro-N-[(3S)-9-fluoro-2-oxo-5-phenyl-2,3-dihydro-1H-1,4-benzodiazepin-3-yl]-5H,6H,7H,8H-pyrazolo[3,2-b][1,3]oxazepine-3-carboxamide] were 103 nM and more than 25000 nM.
The corresponding values for `CC(C)Nc1ccc(-c2nn3c(c2C(=O)N[C@H]2N=C(c4ccccc4)c4cccc(F)c4NC2=O)OCC(F)(F)CC3)cn1` [Example 23, 6,6-Difluoro-N-[(3S)-9-fluoro-2-oxo-5-phenyl-2,3-dihydro-1H-1,4-benzodiazepin-3-yl]-2-{6-[(propan-2-yl)amino]pyridin-3-yl}-5H,6H,7H,8H-pyrazolo[3,2-b][1,3]oxazepine-3-carboxamide] are 52 nM and more than 25000 nM.
Compound `CCC1CCCn2nc(-c3ccccc3F)c(C(=O)N[C@H]3N=C(c4ccccc4)c4ccccc4NC3=O)c2O1` (stereo partly drawn) [Example 24, 5-Ethyl-2-(2-fluorophenyl)-N-[(3S)-2-oxo-5-phenyl-1,3-dihydro-1,4-benzodiazepin-3-yl]-5,6,7,8-tetrahydropyrazolo[5,1-b][1,3]oxazepine-3-carboxamide] displayed an EC50 in data set [1] (setting [4]) of 100 nM. The compound further had a CC50 in data set [3] of more than 25000 nM.
As to `CCC1CCCn2nc(-c3ccccc3F)c(C(=O)N[C@H]3N=C(c4ccccc4)c4cccc(F)c4NC3=O)c2O1` (stereo partly drawn) [Example 25, 5-Ethyl-N-[(3 S)-9-fluoro-2-oxo-5-phenyl-1,3-dihydro-1,4-benzodiazepin-3-yl]-2-(2-fluorophenyl)-5,6,7,8-tetrahydropyrazolo[5,1-b][1,3]oxazepine-3-carboxamide], it took 83 nM to reach a half-maximal effect in data set [1] (setting [4]) (EC50). In data set [3], this compound showed a CC50 of more than 25000 nM.
Taken in the same sequence, the figures for `CCC1CCCn2nc(-c3ccc(C)nc3)c(C(=O)N[C@H]3N=C(c4ccccc4)c4ccccc4NC3=O)c2O1` (stereo partly drawn) [Example 26, 5-Ethyl-2-(6-methylpyridin-3-yl)-N-[(3S)-2-oxo-5-phenyl-1,3-dihydro-1,4-benzodiazepin-3-yl]-5,6,7,8-tetrahydropyrazolo[5,1-b][1,3]oxazepine-3-carboxamide] were 590 nM and more than 25000 nM.
`CCC1CCCn2nc(-c3ccc(C)nc3)c(C(=O)N[C@H]3N=C(c4ccccc4)c4cccc(F)c4NC3=O)c2O1` (stereo partly drawn) [Example 27, 5-Ethyl-N-[(3 S)-9-fluoro-2-oxo-5-phenyl-1,3-dihydro-1,4-benzodiazepin-3-yl]-2-(6-methylpyridin-3-yl)-5,6,7,8-tetrahydropyrazolo[5,1-b][1,3]oxazepine-3-carboxamide] gave an EC50 in data set [1] (setting [4]) of 394 nM. Further, in data set [3], the cytotoxic concentration (CC50) was more than 25000 nM.
The compound `CS(=O)(=O)c1ccc(-c2nn3c(c2C(=O)N[C@H]2N=C(c4ccccc4)c4cccc(F)c4NC2=O)OC2CCC3C2)c(F)c1` (stereo partly drawn) [Example 32, 4-(2-Fluoro-4-methylsulfonylphenyl)-N-[(3S)-9-fluoro-2-oxo-5-phenyl-1,3-dihydro-1,4-benzodiazepin-3-yl]-7-oxa-2,3-diazatricyclo[6.2.1.02,6]undeca-3,5-diene-5-carboxamide] came in with an EC50 in data set [1] (setting [4]) of 23 nM. The CC50 in data set [3] is more than 25000 nM.
